Measurements as given in PubChem BioAssay (NCI).
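Tested at 5 concentrations; 48 h exposure; 96-well plates; endpoints linearly interpolated, else capped at highest concentration. At the TGI there is no net growth.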

How the values were obtained:
Assay in all cases: NCI-60 cell line screen, 48 h
[1] = tested on: COLO 205 colon
[2] = tested on: DU-145 prostate
[3] = tested on: HL-60(TB) leukemia
[4] = tested on: HT29 colon
[5] = tested on: KM12 colon
[6] = tested on: LOX IMVI melanoma
[7] = tested on: NCI-H522 lung
[8] = tested on: NCI/ADR-RES ovarian
[9] = tested on: OVCAR-5 ovarian
[10] = tested on: SK-MEL-2 melanoma
[11] = tested on: T-47D breast

| SMILES | TGI [1] [µM] | TGI [2] [µM] | TGI [3] [µM] | TGI [4] [µM] | TGI [5] [µM] | TGI [6] [µM] | TGI [7] [µM] | TGI [8] [µM] | TGI [9] [µM] | TGI [10] [µM] | TGI [11] [µM] |
| --- | --- | --- | --- | --- | --- | --- | --- | --- | --- | --- | --- |
| N[C@@H]1c2c(Br)sc(Br)c2[C@H](O)[C@@H]1O | > 100 | > 100 | > 100 | > 100 | > 100 | > 100 | > 100 | > 100 | > 100 | > 100 | > 100 |
| N=c1c2c3n(c4c(=O)n(-c5ccccc5)c(=S)n(c(=O)n1-c1ccccc1)c24)CCCCC3 | > 100 | > 100 | > 100 | > 100 | > 100 | > 100 | > 100 | > 100 | > 100 | > 100 | > 100 |
| CO/N=C1\CCC2(O)C3Cc4ccc(O)c5c4C2(CCN3CC2CC2)[C@H]1O5 (stereo partly specified) | > 100 | > 100 | > 100 | > 100 | > 100 | > 100 | > 100 | > 100 | > 100 | > 100 | > 100 |
| Cc1ccc(C(=O)CC(Cl)=C(Cl)Cl)cc1 | > 100 | > 100 | > 100 | > 100 | > 100 | > 100 | > 100 | > 100 | > 100 | > 100 | > 100 |
| Cc1cccc2sc(NC(=O)c3cc([N+](=O)[O-])ccc3Cl)nc12 | > 71.3 | 17.4 | > 100 | 4.48 | 12.1 | 6.64 | 4.1 | > 24.2 | 28.4 | > 100 | > 100 |
| COc1ccc(-c2cc(-c3ccc(Nc4ccnc5cc(C(F)(F)F)ccc45)cc3)[nH]c(=O)c2C#N)c2ccccc12 | > 58.4 | > 83.7 | > 100 | > 74.2 | > 100 | > 49.7 | > 100 | > 100 | > 100 | > 100 | > 60.5 |
